Values of other authors in publication PMC11327090, “The Nectin family ligands, PVRL2 and PVR, in cancer immunology and immunotherapy” (Frontiers in Immunology, 2024).

Columns and labels:
[1] = test system: non-small cell lung cancer; design: method as in PMID 35576957; settings: phase II trial
[2] = test system: Myeloma cells; design: method as in PMID 19098271; settings: treated myeloma cells
[3] = test system: breast cancer cell lines; design: method as in PMID 30039180; settings: in vitro

Molecule	objective response rate [1] [%]	Median progression-free survival ([1]; 95% CI in brackets) [months]	PVRL2 and PVR expression [2]	PVR expression [3]
placebo plus atezolizumab: anti-PD-L1 antibody atezolizumab with placebo, comparator arm of the phase II trial	16.2	3.6	–	–
CC(C)C[C@H](NC(=O)[C@H](Cc1ccccc1)NC(=O)c1cnccn1)B(O)O [bortezomib]	–	–	upregulate PVRL2 and PVR expression	–
N[C@@H](Cc1ccc(N(CCCl)CCCl)cc1)C(=O)O [melphalan]	–	–	upregulate PVRL2 and PVR expression	–
COc1cccc2c1C(=O)c1c(O)c3c(c(O)c1C2=O)C[C@@](O)(C(=O)CO)C[C@@H]3O[C@H]1C[C@H](N)[C@H](O)[C@H](C)O1 [Adriamycin]	–	–	upregulate PVRL2 and PVR expression	increases PVR expression
